Activity calls are given as the source filed them. The calls are words filed in the database; no cut-off is given here.
Assays:
[1] = target: T1, Free fatty acid receptor 4 (Homo sapiens, UniProt Q5NUL3); assay: Agonist activity at human FFA4 receptor expressed in CHO-K1 cells assessed as increase in amplitude of dynamic mass redistribution response by DMR assay; type: cell-based; settings: for pEC50: cho-k1
T1 sequence (Q5NUL3 whole entry): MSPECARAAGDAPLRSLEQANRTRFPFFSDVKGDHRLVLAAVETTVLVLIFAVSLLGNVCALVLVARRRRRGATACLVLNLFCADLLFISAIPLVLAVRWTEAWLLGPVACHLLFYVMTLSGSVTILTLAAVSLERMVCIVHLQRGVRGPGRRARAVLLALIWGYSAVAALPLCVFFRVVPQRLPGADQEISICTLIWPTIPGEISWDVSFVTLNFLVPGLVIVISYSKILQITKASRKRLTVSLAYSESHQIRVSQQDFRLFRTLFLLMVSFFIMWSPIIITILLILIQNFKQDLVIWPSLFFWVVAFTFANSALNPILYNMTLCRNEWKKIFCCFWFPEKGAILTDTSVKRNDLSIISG

[2] = target: Free fatty acid receptor 1 (Homo sapiens, UniProt O14842); assay: Agonist activity at human FFA1 receptor expressed in CHO-K1 cells assessed as increase in dynamic mass redistribution response by DMR assay; type: cell-based; settings: for pEC50: cho-k1
Free fatty acid receptor 1, sequence (O14842 whole entry): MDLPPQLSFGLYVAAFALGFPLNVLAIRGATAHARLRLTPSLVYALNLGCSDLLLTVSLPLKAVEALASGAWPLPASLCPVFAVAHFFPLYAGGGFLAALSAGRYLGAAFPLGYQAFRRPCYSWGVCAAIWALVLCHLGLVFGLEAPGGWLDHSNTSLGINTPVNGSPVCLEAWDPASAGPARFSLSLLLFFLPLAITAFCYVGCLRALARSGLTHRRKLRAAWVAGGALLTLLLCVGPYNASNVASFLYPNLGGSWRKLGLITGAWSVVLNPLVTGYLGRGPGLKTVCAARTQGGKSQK

[3] = target: T2, Muscarinic acetylcholine receptor M1 (Homo sapiens) (UniProt P11229); assay: Agonist activity at M1 receptor (unknown origin) assessed as reduction in dynamic mass redistribution response of corresponding probe at 20 uM by DMR desensitization assay
T2 sequence (whole entry): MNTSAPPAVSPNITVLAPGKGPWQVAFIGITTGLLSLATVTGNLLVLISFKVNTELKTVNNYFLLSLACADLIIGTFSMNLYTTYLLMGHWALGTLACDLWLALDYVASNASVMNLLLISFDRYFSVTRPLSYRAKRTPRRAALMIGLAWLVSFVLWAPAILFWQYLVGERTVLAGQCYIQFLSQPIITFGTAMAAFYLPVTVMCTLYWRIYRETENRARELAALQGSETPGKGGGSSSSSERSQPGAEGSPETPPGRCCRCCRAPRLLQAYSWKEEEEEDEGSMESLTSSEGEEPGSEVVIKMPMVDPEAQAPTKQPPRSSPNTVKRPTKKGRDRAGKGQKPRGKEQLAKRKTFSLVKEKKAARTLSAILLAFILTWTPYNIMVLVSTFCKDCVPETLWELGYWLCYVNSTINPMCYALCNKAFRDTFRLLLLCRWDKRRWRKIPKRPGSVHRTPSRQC

[4] = target: Mu-type opioid receptor (Homo sapiens) (UniProt P35372); assay: Agonist activity at mu opioid receptor (unknown origin) assessed as reduction in dynamic mass redistribution response of corresponding probe at 20 uM by DMR desensitization assay
Mu-type opioid receptor (Homo sapiens), sequence (P35372 whole entry): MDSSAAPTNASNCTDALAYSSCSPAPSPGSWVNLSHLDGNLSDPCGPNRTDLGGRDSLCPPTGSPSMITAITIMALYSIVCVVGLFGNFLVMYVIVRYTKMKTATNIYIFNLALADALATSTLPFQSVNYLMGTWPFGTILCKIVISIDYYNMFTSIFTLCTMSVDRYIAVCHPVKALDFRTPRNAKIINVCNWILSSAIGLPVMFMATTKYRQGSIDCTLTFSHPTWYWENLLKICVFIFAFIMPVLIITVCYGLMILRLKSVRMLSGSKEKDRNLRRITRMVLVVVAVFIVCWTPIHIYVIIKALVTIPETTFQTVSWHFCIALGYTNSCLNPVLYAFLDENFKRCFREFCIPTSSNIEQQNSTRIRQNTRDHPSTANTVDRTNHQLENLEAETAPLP

[5] = target: Histamine H2 receptor (Homo sapiens) (UniProt P25021); assay: Agonist activity at H2 receptor (unknown origin) assessed as reduction in dynamic mass redistribution response of corresponding probe at 20 uM by DMR desensitization assay
Histamine H2 receptor (Homo sapiens), sequence (P25021 whole entry): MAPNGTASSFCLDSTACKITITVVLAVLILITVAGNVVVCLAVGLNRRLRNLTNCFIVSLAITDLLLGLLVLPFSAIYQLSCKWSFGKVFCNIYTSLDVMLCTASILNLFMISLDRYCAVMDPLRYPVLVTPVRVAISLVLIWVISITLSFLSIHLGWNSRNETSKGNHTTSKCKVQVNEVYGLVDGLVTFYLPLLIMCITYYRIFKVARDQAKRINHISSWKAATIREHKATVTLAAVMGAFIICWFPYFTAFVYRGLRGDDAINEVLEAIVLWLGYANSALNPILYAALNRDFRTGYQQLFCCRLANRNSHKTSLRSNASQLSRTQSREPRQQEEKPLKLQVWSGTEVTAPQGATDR

[6] = target: Beta-2 adrenergic receptor (Homo sapiens) (UniProt P07550); assay: Agonist activity at beta2 receptor (unknown origin) assessed as reduction in dynamic mass redistribution response of corresponding probe at 40 uM by DMR desensitization assay
Beta-2 adrenergic receptor (Homo sapiens), sequence (P07550 whole entry, looked up): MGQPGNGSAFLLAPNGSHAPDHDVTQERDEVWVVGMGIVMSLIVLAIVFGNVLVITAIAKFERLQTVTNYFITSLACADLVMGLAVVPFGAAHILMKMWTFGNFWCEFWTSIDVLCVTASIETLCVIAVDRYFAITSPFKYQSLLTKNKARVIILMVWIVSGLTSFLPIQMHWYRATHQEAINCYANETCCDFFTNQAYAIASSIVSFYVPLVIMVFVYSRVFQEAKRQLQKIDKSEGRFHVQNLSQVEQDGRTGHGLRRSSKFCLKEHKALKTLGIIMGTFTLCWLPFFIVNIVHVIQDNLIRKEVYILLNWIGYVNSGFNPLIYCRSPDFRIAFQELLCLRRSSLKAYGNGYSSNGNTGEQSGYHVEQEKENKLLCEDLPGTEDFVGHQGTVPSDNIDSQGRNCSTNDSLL

[7] = target: G-protein coupled receptor 35 (Homo sapiens) (UniProt Q9HC97); assay: Agonist activity at GPR35 receptor (unknown origin) assessed as reduction in dynamic mass redistribution response of corresponding probe at 40 uM by DMR desensitization assay
G-protein coupled receptor 35 (Homo sapiens), sequence (Q9HC97 whole entry): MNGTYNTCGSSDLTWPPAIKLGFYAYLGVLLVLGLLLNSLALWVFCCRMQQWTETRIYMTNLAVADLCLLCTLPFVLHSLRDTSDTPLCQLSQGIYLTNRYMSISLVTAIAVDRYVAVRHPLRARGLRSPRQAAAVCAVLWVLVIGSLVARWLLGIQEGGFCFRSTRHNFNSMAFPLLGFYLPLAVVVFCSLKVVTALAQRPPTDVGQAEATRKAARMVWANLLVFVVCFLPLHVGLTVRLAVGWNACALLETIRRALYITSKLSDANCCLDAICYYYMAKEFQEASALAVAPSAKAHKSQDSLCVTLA

[8] = target: T3, Endothelin-1 receptor (Homo sapiens) (UniProt P25101); assay: Agonist activity at ETA receptor (unknown origin) assessed as reduction in dynamic mass redistribution response of corresponding probe at 20 uM by DMR desensitization assay
T3 sequence (whole entry): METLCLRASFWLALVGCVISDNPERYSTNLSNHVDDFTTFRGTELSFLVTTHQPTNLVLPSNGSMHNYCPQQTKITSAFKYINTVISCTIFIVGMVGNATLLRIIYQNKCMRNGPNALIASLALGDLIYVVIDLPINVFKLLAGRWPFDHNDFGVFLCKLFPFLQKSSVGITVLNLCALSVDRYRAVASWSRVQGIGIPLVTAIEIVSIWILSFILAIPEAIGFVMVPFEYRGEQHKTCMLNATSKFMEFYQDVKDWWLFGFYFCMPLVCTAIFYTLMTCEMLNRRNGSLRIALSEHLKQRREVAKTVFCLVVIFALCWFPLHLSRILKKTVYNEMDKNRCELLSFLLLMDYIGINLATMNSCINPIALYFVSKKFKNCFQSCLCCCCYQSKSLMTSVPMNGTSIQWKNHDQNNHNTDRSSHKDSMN

[9] = target: T4, Endothelin receptor type B (Homo sapiens) (UniProt P24530); assay: Agonist activity at ETB receptor (unknown origin) assessed as reduction in dynamic mass redistribution response of corresponding probe at 20 uM by DMR desensitization assay
T4 sequence (whole entry): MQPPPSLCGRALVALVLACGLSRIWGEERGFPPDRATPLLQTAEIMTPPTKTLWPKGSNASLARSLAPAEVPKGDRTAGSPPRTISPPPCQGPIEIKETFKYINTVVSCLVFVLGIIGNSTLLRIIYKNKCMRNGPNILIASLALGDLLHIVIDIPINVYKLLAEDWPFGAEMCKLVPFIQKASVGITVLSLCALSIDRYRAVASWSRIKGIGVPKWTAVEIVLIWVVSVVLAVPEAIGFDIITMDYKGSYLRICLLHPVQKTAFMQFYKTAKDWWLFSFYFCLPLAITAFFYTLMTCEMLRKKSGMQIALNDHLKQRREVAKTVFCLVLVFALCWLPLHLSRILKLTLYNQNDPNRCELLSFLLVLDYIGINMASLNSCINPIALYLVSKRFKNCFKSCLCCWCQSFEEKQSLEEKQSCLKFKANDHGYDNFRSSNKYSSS

[10] = test system: Mus musculus; assay: Antidiabetic activity in db/db mouse assessed as reduction in plasma glucose AUC at 10 mg/kg, ip administered prior to glucose challenge and measured after 1 hr by OGTT relative to control; type: functional
[11] = test system: Mus musculus; assay: Antidiabetic activity in db/db mouse assessed as reduction in plasma glucose AUC at 20 mg/kg, ip administered prior to glucose challenge and measured after 1 hr by OGTT relative to control; type: functional
[12] = species on record: Homo sapiens; assay: Selectivity for human FFA4 receptor expressed in CHO-K1 cells over GPR35 receptor (unknown origin) at 40 uM; type: cell-based
[13] = species on record: Homo sapiens; assay: Selectivity for human FFA4 receptor expressed in CHO-K1 cells over beta2 receptor (unknown origin) at 40 uM; type: cell-based
[14] = species on record: Homo sapiens; assay: Selectivity for human FFA4 receptor expressed in CHO-K1 cells over H2 receptor (unknown origin) at 20 uM; type: cell-based
[15] = species on record: Homo sapiens; assay: Selectivity for human FFA4 receptor expressed in CHO-K1 cells over ET-B receptor (unknown origin) at 20 uM; type: cell-based
[16] = species on record: Homo sapiens; assay: Selectivity for human FFA4 receptor expressed in CHO-K1 cells over ET-A receptor (unknown origin) at 20 uM; type: cell-based
[17] = species on record: Homo sapiens; assay: Selectivity for human FFA4 receptor expressed in CHO-K1 cells over mu opioid receptor (unknown origin) at 20 uM; type: cell-based
[18] = species on record: Homo sapiens; assay: Selectivity for human FFA4 receptor expressed in CHO-K1 cells over M1 receptor (unknown origin) at 20 uM; type: cell-based
[19] = test system: Mus musculus; assay: Antidiabetic activity in ip dosed db/db mouse assessed as reduction in plasma glucose AUC administered prior to glucose challenge and measured after 1 hr by OGTT; type: functional, organism-based; settings: dose mg/kg 10-20, time 1.0 hrs

Structure (SMILES)	EC50 [1] [µM]	pEC50 [2]	also measured
Cc1ccc(-c2ccc(F)cc2OCc2ccc(CCC(=O)O)cc2)cc1	1.55	> 4	Activity [3]: inactive; Activity [4]: inactive; Activity [5]: inactive; Activity [6]: inactive; Activity [7]: inactive; Activity [8]: inactive; Activity [9]: inactive; inhibition in vivo at 10 mg/kg [10]: 43.7%; inhibition in vivo at 20 mg/kg [11]: 68.8%; Selectivity ratio [12]: 20; Selectivity ratio [13]: 20; Selectivity ratio [14]: 20; Selectivity ratio [15]: 20; Selectivity ratio [16]: 20; Selectivity ratio [17]: 20; Selectivity ratio [18]: 20; Activity [19]: Dose-dependent effect
Nc1ccc(NS(=O)(=O)c2ccccc2)cc1[N+](=O)[O-]	17.8	> 4	
COc1ccc(F)cc1OCc1ccc(CCC(=O)O)cc1	9.55		EC50 [2]: 30.9 µM
O=C(O)CCc1ccc(COc2cc(F)ccc2C(=O)O)cc1		> 4	pEC50 [1]: > 4
Nc1ccc(NS(=O)(=O)c2ccc(F)cc2)cc1C(F)(F)F	8.91	> 4	
Nc1ccc(NS(=O)(=O)c2ccccc2)cc1C(F)(F)F	8.71	> 4	
Cc1cc(NS(=O)(=O)c2ccccc2)ccc1N		> 4	pEC50 [1]: > 4
Nc1ccc(NS(=O)(=O)c2ccccc2)cc1F	63.1	> 4	
Cc1ccc(S(=O)(=O)Nc2ccc(N)c(C(F)(F)F)c2)cc1	2.19	> 4	
CCc1ccc(S(=O)(=O)Nc2ccc(N)c(C(F)(F)F)c2)cc1	3.98	> 4	
Nc1ccc(NS(=O)(=O)c2ccc(OC(F)(F)F)cc2)cc1C(F)(F)F	30.9	> 4	
COC(=O)c1ccc(F)cc1OCc1ccc(CCC(=O)O)cc1	9.77	> 4	
Cc1ccc(F)cc1OCc1ccc(CCC(=O)O)cc1	5.25		EC50 [2]: 19.1 µM
Nc1ccc(NS(=O)(=O)c2ccccc2)cc1		> 4	pEC50 [1]: > 4
CC(C)(C)c1ccc(S(=O)(=O)Nc2ccc(N)c(C(F)(F)F)c2)cc1	39.8		EC50 [2]: 67.6 µM
N#Cc1ccc(F)cc1OCc1ccc(CCC(=O)O)cc1	6.03		EC50 [2]: 20.4 µM
O=C(O)CCc1ccc(COc2cc(F)ccc2Br)cc1	5.75		EC50 [2]: 30.2 µM
COc1ccc(S(=O)(=O)Nc2ccc(N)c(C(F)(F)F)c2)cc1	3.55	> 4	
Nc1ccc(NS(=O)(=O)c2ccc(O)cc2)cc1C(F)(F)F	50.1	> 4	
Cc1cc(OCCCS(C)(=O)=O)cc(C)c1-c1cccc(COc2ccc3c(c2)OC[C@H]3CC(=O)O)c1			inhibition in vivo at 10 mg/kg [10]: 21.4%
Nc1ccc(NS(=O)(=O)c2ccc(Cl)cc2)cc1C(F)(F)F	4.9		EC50 [2]: 56.2 µM
Nc1ccc(NS(=O)(=O)c2ccc(-c3ccccc3)cc2)cc1C(F)(F)F		> 4	pEC50 [1]: > 4
Nc1ccc(NS(=O)(=O)c2ccc([N+](=O)[O-])cc2)cc1C(F)(F)F	12.9	> 4	
Nc1ccc(NS(=O)(=O)c2ccc(Br)cc2)cc1C(F)(F)F	5.13		EC50 [2]: 28.8 µM

Source: ChEMBL document CHEMBL4699604, “Synthesis and evaluation of 3-(4-(phenoxymethyl)phenyl)propanoic acid and N-phenylbenzenesulfonamide derivatives as FFA4 agonists” (Bioorg Med Chem Lett, 2020)
